Test results reported in US8263628B2, “Fluorine-containing organosulfur compound and pesticidal composition thereof” (Sumitomo Chemical Company, Limited., priority 2007, dated 2012).

How the values were obtained:
Musca domestica = assay: Filter paper/sucrose bait test against female Musca domestica; assay type: in vivo; conditions: 500 ppm test solution, 0.7 mL on filter paper; 10 female Musca domestica; after 24 hours; read-out: mortality rate
Description: Each of the formulations of the present compounds (1), (2), (3), (4), (5), (6), (8), (9), (10), (12), (14) and (15) obtained in Formulation Example 20 was diluted so that the concentration of the present compound was 500 ppm to prepare a test solution.
On the bottom of a polyethylene cup having a diameter of 5.5 cm, a filter paper having the same size was laid and 0.7 mL of the test solution was dropped on the filter paper, and then 30 mg of a sucrose as a bait was uniformly placed. In the polyethylene cup, 10 female Musca domesticas were released and the cup was lidded. After 24 hours, life and death of Musca domesticas were examined and the mortality rate was determined.

Culex pipiens pallens = assay: Water treatment test against Culex pipiens pallens last instar larvae; assay type: in vivo; conditions: 24 h; active ingredient 3.5 ppm in water; 20 Culex pipiens pallens last instar larvae; after one day; read-out: mortality rate
Description: Each of the formulations of the present compounds (1), (3), (4), (6), (8), (9), (10), (14) and (15) obtained in Formulation Example 20 was diluted so that the concentration of the present compound was 500 ppm to prepare a test solution.
To 100 mL of ion-exchange water was added 0.7 mL of the above test solution (concentration of an active ingredient: 3.5 ppm). In the solution, 20 Culex pipiens pallens last instar larvae were released. After one day, life and death of Culex pipiens last instar larvae were examined and the mortality rate was determined.

Compound	mortality at 500 ppm (Musca domestica)	mortality at 3.5 ppm (Culex pipiens pallens)
CC(SCCC(F)(F)F)c1ccc(Cl)cn1 (stereo not drawn) [present compound (6), 5-chloro-2-[1-(3,3,3-trifluoropropylsulfanyl)ethyl]pyridine]	≥ 90%	≥ 95%
O=S(=O)(CCC(F)(F)F)Cc1ccc(C(F)(F)F)nc1 [present compound (2), 2-trifluoromethyl-5-(3,3,3-trifluoropropanesulfonylmethyl)pyridine]	≥ 90%	
CC(c1ccc(C(F)(F)F)nc1)S(=O)(=O)CCC(F)(F)F (stereo not drawn) [present compound (4), 2-trifluoromethyl-5-[1-(3,3,3-trifluoropropanesulfonyl)ethyl]pyridine]	≥ 90%	≥ 95%
CC(SCCC(F)(F)F)c1ccc(C(F)(F)F)nc1 (stereo not drawn) [present compound (3), 2-trifluoromethyl-5-[1-(3,3,3-trifluoropropylsulfanyl)ethyl]pyridine]	≥ 90%	≥ 95%
FC(F)(F)CCSCc1ccc(Cl)cn1 [present compound (5), 5-chloro-2-(3,3,3-trifluoropropylsulfanylmethyl)pyridine]	≥ 90%	
FC(F)(F)CCSCc1cnc(C(F)(F)F)nc1 [present compound (10), 2-trifluoromethyl-5-(3,3,3-trifluoropropylsulfanylmethyl)pyrimidine]	≥ 90%	≥ 95%
FC(F)(F)CCSCc1ccc(C(F)(F)F)nc1 [present compound (1), 2-trifluoromethyl-5-(3,3,3-trifluoropropylsulfanylmethyl)pyridine]	≥ 90%	≥ 95%
COc1ncc(CSCCC(F)(F)F)cn1 [present compound (12), 2-methoxy-5-(3,3,3-trifluoropropylsulfanylmethyl)pyrimidine]	≥ 90%	
CC(SCCC(F)(F)F)c1ccc(C(F)(F)F)cn1 (stereo not drawn) [present compound (8), 5-trifluoromethyl-2-[1-(3,3,3-trifluoropropylsulfanyl)ethyl]pyridine]	≥ 90%	≥ 95%
COC(=O)C(Cl)(c1ccc(C(F)(F)F)cn1)S(=O)(=O)CCC(F)(F)F (stereo not drawn) [present compound (14), methyl 2-chloro-2-(5-trifluoromethylpyridin-2-yl)-2-(3,3,3-trifluoropropylsulfonyl)acetate]	≥ 90%	≥ 95%
O=S(=O)(CCC(F)(F)F)C(Cl)c1ccc(C(F)(F)F)cn1 (stereo not drawn) [present compound (15), 2-[chloro-(3,3,3-trifluoropropanesulfonyl)methyl]-5-trifluoromethylpyridine]	≥ 90%	≥ 95%
CC(c1ccc(C(F)(F)F)cn1)S(=O)(=O)CCC(F)(F)F (stereo not drawn) [present compound (9), 5-trifluoromethyl-2-[1-(3,3,3-trifluoropropanesulfonyl)ethyl]pyridine]	≥ 90%	≥ 95%
